Assay results as given in patent US20250134952A1, “METHODS FOR IMPROVING THE EFFICACY OF HDAC INHIBITOR THERAPY AND PREDICTING THE RESPONSE TO TREATMENT WITH HDAC INHIBITOR” (INSTITUT NATIONAL DE LA SANTÉ ET DE LA RECHERCHE MÉDICALE, priority 2021, published 2025).

Columns and labels:
GADD45a = GADD45a expression by real-time PCR; assay type: cell-based, human; settings: 100 nM TSA, 24 h
Description: (A) Representative confocal sections of MCF7shctrl and shTau cells untreated or treated with 100 nM TSA for 24 h. […] (B) Quantification of HP1α clusters per nuclei visualized as described previously and realized on three independent experiments. (C) GADD45a and (D) p21 (CDKN1a) expression in MCF7shctrl and shTau cells untreated or treated with 100 nM TSA for 24 h were analyzed by real-time PCR and normalized to RPLO. Results are expressed, relative to the basal activity set to 1, as the mean±SD of three independent assays. (E) Tau tethering prevents adjacent reporter gene activity induced by TSA. GAL4UAS responsive luciferase reporter Hela stable cell line was transfected with GAL4DBD (GAL4) or GAL4DBD-Tau4R and then, 24 h later, treated with TSA (600 nM) for 24 h. The luciferase activity was determined as described in the Materials and Methods. (F) Ectopic Tau4R expression prevents adjacent reporter gene activity induced by TSA. […] The luciferase activity was determined as described in the Materials and Methods. […]
Total RNA was prepared using RNeasyMinikit (Qiagen). Reverse transcription (RT) was performed using random hexamers as recommended by the manufacturer (Applied Biosystems). cDNAs were analyzed by PCR amplification using the TaqMan PCR master mix (Applied Biosystems) and a mix of RPLO primers and probes. […]

[1] = system: HP1β clusters in Hela cells; assay: GFP-HP1β clusters per nuclei, confocal microscopy; assay type: cell-based; settings: TSA 300 nM, 24 h, control Hela cells
Description: (A) Single confocal sections of Hela cells transfected with […], with or without Tau4R or TauP301L and treated 24 h later with the TSA (300 nM) for 24 h. Tau C-terminus antibodies and GFP fluorescence were used to visualize total Tau protein and HP1β respectively. Representative images are shown. (B) Quantification of HP1β clusters per nuclei visualized as described previously and realized on three independent experiments. Data are mean±SD *P<0.05 ***P<0.001.
MCF7shctrl, MCF7shTau or transfected Hela cells with Tau4R and GFP-HP1α were fixed in 4% paraformaldehyde for 30 min at room temperature. Permeabilization was carried out in 0.2% Triton X-100 in phosphate-buffered saline for 10 min at room temperature. After 1 h saturation in 2% bovine serum albumin, immunostaining was performed using Tau antibody (recognizing the C-terminal domain of Tau). […] Nuclear staining was performed by adding 1/2000 DAPI in phosphate-buffered saline for 10 min. Slides were then analyzed with a Zeiss LSM710 confocal laser scanning microscope (60× magnification). Images were collected in the Z direction at 0.80 μm intervals and quantifications were realized using the Image J plug-in.
To this end, we first performed GST-pulldown analysis using purified core histones. As shown previously, Tau interacted specifically with core histones as detected by H3, H4, H2A and H2B antibodies (data not shown). […]

**Q.** How did the “GADD45a induction (RT-qPCR)” value (GADD45a; MCF7shctrl cells, relative to basal) turn out when `CC(/C=C/C(=O)NO)=C\[C@@H](C)C(=O)c1ccc(N(C)C)cc1` [TSA, 2,4-Heptadienamide, 7-[4-(dimethylamino)phenyl]-N-hydroxy-4,6-dimethyl-7-oxo-, (2E,4E,6R)-] was run?
**A.** 3 fold

**Q.** And the “GADD45a upregulation by TSA” value (GADD45a; cells with reduced Tau expression (MCF7shTau) vs MCF7shctrl)?
**A.** exacerbated

**Q.** And the “number of HP1 clusters following TSA treatment” value [1]?
**A.** decrease
